Reference: US20020137929A1, “1 - (3-heterocyclylphenyl) isothiourea, -isourea, -guanidine and -amidine herbicidal agents” (Intellectual Property Department, BASF Aktiengesellschaft, priority 1998, published 2002)

Assays:
[1] = system: ECHCG (Barnyardgrass); assay: Preemergence herbicidal evaluation; type: in vivo, Echinochloa crus-galli; settings: rated 4-5 weeks after treatment
Summary of the method: (§1)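 Scores (0–9) reflect visual comparison with control plants for stand, vigor, malformation, size and chlorosis. Compound was applied to the soil after sowing, before emergence, as an aqueous acetone spray (about 0.0156–0.500 kg/ha), and cups were kept in a greenhouse for 4–5 weeks.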

[2] = system: SAGPY (Arrowhead (Pygmaea)); assay: Postemergence weed control under flooded paddy conditions; type: in vivo, Sagittaria pygmaea; settings: postemergence weeds, rated 3 to 4 weeks after treatment
Summary of the method: (§2)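 With weeds 3 to 5 cm tall and rice at the 1.5 to 2.5 leaf stage, containers were flooded and water held 1.5 to 3 cm above soil. Compounds in 50/50 v/v aqueous/acetone went into the flood water at about 0.0313 to 0.500 kg/ha a.i. Effects were visually rated 0–9 against controls after three to four weeks in the greenhouse.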

[3] = system: ECHORC (Watergrass (Calif.)); assay: as above; type: in vivo, Echinochloa oryzoides; settings: postemergence weeds, rated 3 to 4 weeks after treatment
Summary of the method: as §2

[4] = system: SETVI (Foxtail, Green); assay: Preemergence herbicidal evaluation; type: in vivo, Setaria viridis; settings: rated 4-5 weeks after treatment
Summary of the method: as §1

[5] = system: ABUTH (Velvetleaf); assay: Preemergence herbicidal evaluation; type: in vivo, Abutilon theophrasti; settings: rated 4-5 weeks after treatment
Summary of the method: as §1

[6] = system: GALAP (Galium); assay: Postemergence herbicidal evaluation; type: in vivo, Galium aparine; settings: postemergence
Summary of the method: (§3)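 Scores (0–9) reflect plant stand, vigor, malformation, size, chlorosis and general appearance relative to control, read 4 to 5 weeks after treatment and averaged where tests were repeated. Application: about 0.0156–0.500 kg/ha sprayed at 40 psi onto two-week seedlings.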

[7] = system: ZEAMX (Corn, Field); assay: Preemergence herbicidal evaluation; type: in vivo, Zea mays; settings: rated 4-5 weeks after treatment
Summary of the method: as §1

[8] = system: ECHORC (Watergrass (Calif.)); assay: Preemergence weed control under flooded paddy conditions; type: in vivo, Echinochloa oryzoides; settings: rated 3-4 weeks after treatment
Summary of the method: (§4)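 Seeds or propagules sown in silt loam kept flooded 1.5-3 cm; compounds in 50/50 acetone/water pipetted into flood water at about 0.0313 to 0.500 kg/ha. Greenhouse; visual 0-9 rating versus untreated control 3-4 weeks after treatment.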

[9] = system: TRZAWR (Wheat, Winter, cv Riband); assay: Postemergence herbicidal evaluation; type: in vivo, Triticum aestivum; settings: postemergence
Summary of the method: as §3

[10] = system: IPOHE (Morningglory, Ivyleaf); assay: Preemergence herbicidal evaluation; type: in vivo, Ipomoea hederacea; settings: rated 4-5 weeks after treatment
Summary of the method: as §1

[11] = system: CYPIR (Rice Flatsedge); assay: Preemergence weed control under flooded paddy conditions; type: in vivo, Cyperus iria; settings: rated 3-4 weeks after treatment
Summary of the method: as §4

[12] = system: SETVI (Foxtail, Green); assay: Postemergence herbicidal evaluation; type: in vivo, Setaria viridis; settings: postemergence
Summary of the method: as §3

[13] = system: IPOHE (Morningglory, Ivyleaf); assay: Postemergence herbicidal evaluation; type: in vivo, Ipomoea hederacea; settings: postemergence
Summary of the method: as §3

Cn1c(C(F)(F)F)cc(=O)n(-c2cc(N=C3SCC(=O)N3[C@H](Cc3ccccc3)C(=O)O)c(Cl)cc2F)c1=O [Compound 69, α-Benzyl-2-{{2-chloro-5-[3,6-dihydro-3-methyl-2,6-dioxo-4-(trifluoromethyl)-1(2H)-pyrimidinyl]-4-fluorophenyl}imino}-4-oxo-3-thiazolidineacetic acid, D-]
Preemergence herbicidal rating ECHCG ([1]; rate 0.0156 kg/ha): 0.0 | Preemergence herbicidal rating ECHCG ([1]; rate 0.0313 kg/ha): 0.0 | Preemergence herbicidal rating ECHCG ([1]; rate 0.0625 kg/ha): 0.0 | Preemergence herbicidal rating ECHCG ([1]; rate 0.1250 kg/ha): 1.0 | Preemergence herbicidal rating ECHCG ([1]; rate 0.2500 kg/ha): 3.0 | Herbicidal rating SAGPY ([2]; Rate 0.0313 kg/ha): 0.0 | Herbicidal rating SAGPY ([2]; Rate 0.0625 kg/ha): 0.0 | Herbicidal rating SAGPY ([2]; Rate 0.1250 kg/ha): 3.0 | Herbicidal rating SAGPY ([2]; Rate 0.2500 kg/ha): 3.0 | Herbicidal rating ECHORC ([3]; Rate 0.0313 kg/ha): 0.0 | Herbicidal rating ECHORC ([3]; Rate 0.0625 kg/ha): 4.0 | Herbicidal rating ECHORC ([3]; Rate 0.1250 kg/ha): 5.0 | Herbicidal rating ECHORC ([3]; Rate 0.2500 kg/ha): 7.0 | Preemergence herbicidal rating SETVI ([4]; rate 0.0156 kg/ha): 0.0 | Preemergence herbicidal rating SETVI ([4]; rate 0.0313 kg/ha): 0.0 | Preemergence herbicidal rating SETVI ([4]; rate 0.0625 kg/ha): 0.0 | Preemergence herbicidal rating SETVI ([4]; rate 0.1250 kg/ha): 4.0 | Preemergence herbicidal rating SETVI ([4]; rate 0.2500 kg/ha): 7.0 | Preemergence herbicidal rating ABUTH ([5]; rate 0.0156 kg/ha): 0.0 | Preemergence herbicidal rating ABUTH ([5]; rate 0.0313 kg/ha): 0.0 | Preemergence herbicidal rating ABUTH ([5]; rate 0.0625 kg/ha): 9.0 | Preemergence herbicidal rating ABUTH ([5]; rate 0.1250 kg/ha): 9.0 | Preemergence herbicidal rating ABUTH ([5]; rate 0.2500 kg/ha): 9.0 | GALAP herbicidal rating ([6]; rate 0.0158 kg/ha): 0.0 | GALAP herbicidal rating ([6]; rate 0.0315 kg/ha): 1.0 | GALAP herbicidal rating ([6]; rate 0.0630 kg/ha): 5.0 | Preemergence herbicidal rating ZEAMX ([7]; rate 0.0156 kg/ha): 0.0 | Preemergence herbicidal rating ZEAMX ([7]; rate 0.0313 kg/ha): 0.0 | Preemergence herbicidal rating ZEAMX ([7]; rate 0.0625 kg/ha): 0.0 | Preemergence herbicidal rating ZEAMX ([7]; rate 0.1250 kg/ha): 3.0 | Preemergence herbicidal rating ZEAMX ([7]; rate 0.2500 kg/ha): 3.0 | ECHORC herbicidal effect rating ([8]; 0.0313 kg/ha): 0.0 | ECHORC herbicidal effect rating ([8]; 0.0625 kg/ha): 4.0 | ECHORC herbicidal effect rating ([8]; 0.1250 kg/ha): 5.0 | ECHORC herbicidal effect rating ([8]; 0.2500 kg/ha): 7.0 | TRZAWR herbicidal rating ([9]; rate 0.0158 kg/ha): 3.0 | TRZAWR herbicidal rating ([9]; rate 0.0315 kg/ha): 3.0 | TRZAWR herbicidal rating ([9]; rate 0.0630 kg/ha): 4.5 | Preemergence herbicidal rating IPOHE ([10]; rate 0.0313 kg/ha): 0.0 | Preemergence herbicidal rating IPOHE ([10]; rate 0.0625 kg/ha): 2.0 | Preemergence herbicidal rating IPOHE ([10]; rate 0.1250 kg/ha): 1.0 | Preemergence herbicidal rating IPOHE ([10]; rate 0.2500 kg/ha): 4.0 | CYPIR herbicidal effect rating ([11]; 0.0313 kg/ha): 3.0 | CYPIR herbicidal effect rating ([11]; 0.0625 kg/ha): 3.0 | CYPIR herbicidal effect rating ([11]; 0.1250 kg/ha): 3.0 | CYPIR herbicidal effect rating ([11]; 0.2500 kg/ha): 3.0 | SETVI herbicidal rating ([12]; rate 0.0158 kg/ha): 3.0 | SETVI herbicidal rating ([12]; rate 0.0315 kg/ha): 1.0 | SETVI herbicidal rating ([12]; rate 0.0630 kg/ha): 1.0 | IPOHE herbicidal rating ([13]; rate 0.0158 kg/ha): 9.0 | IPOHE herbicidal rating ([13]; rate 0.0315 kg/ha): 9.0 | IPOHE herbicidal rating ([13]; rate 0.0630 kg/ha): 9.0

COC(=O)[C@H](Cc1ccccc1)N1C(=O)CS/C1=N/c1cc(-n2c(=O)cc(C(F)(F)F)n(C)c2=O)c(F)cc1Cl [Compound 72, Methyl α-benzyl-2-{{2-chloro-5-[3,6-dihydro-3-methyl-2,6-dioxo-4-(trifluoromethyl)-1(2H)-pyrimidinyl]-4-fluorophenyl]imino}-4-oxo-3-thiazolidineacetate, L-]
Preemergence herbicidal rating ECHCG ([1]; rate 0.0156 kg/ha): 0.0 | Preemergence herbicidal rating ECHCG ([1]; rate 0.0313 kg/ha): 0.0 | Preemergence herbicidal rating ECHCG ([1]; rate 0.0625 kg/ha): 0.0 | Preemergence herbicidal rating ECHCG ([1]; rate 0.1250 kg/ha): 0.0 | Preemergence herbicidal rating ECHCG ([1]; rate 0.2500 kg/ha): 3.0 | Herbicidal rating SAGPY ([2]; Rate 0.0313 kg/ha): 4.0 | Herbicidal rating SAGPY ([2]; Rate 0.0625 kg/ha): 4.0 | Herbicidal rating SAGPY ([2]; Rate 0.1250 kg/ha): 4.0 | Herbicidal rating SAGPY ([2]; Rate 0.2500 kg/ha): 4.0 | Herbicidal rating ECHORC ([3]; Rate 0.0313 kg/ha): 9.0 | Herbicidal rating ECHORC ([3]; Rate 0.0625 kg/ha): 9.0 | Herbicidal rating ECHORC ([3]; Rate 0.1250 kg/ha): 9.0 | Herbicidal rating ECHORC ([3]; Rate 0.2500 kg/ha): 9.0 | Preemergence herbicidal rating SETVI ([4]; rate 0.0156 kg/ha): 0.0 | Preemergence herbicidal rating SETVI ([4]; rate 0.0313 kg/ha): 0.0 | Preemergence herbicidal rating SETVI ([4]; rate 0.0625 kg/ha): 0.0 | Preemergence herbicidal rating SETVI ([4]; rate 0.1250 kg/ha): 9.0 | Preemergence herbicidal rating SETVI ([4]; rate 0.2500 kg/ha): 9.0 | Preemergence herbicidal rating ABUTH ([5]; rate 0.0156 kg/ha): 2.0 | Preemergence herbicidal rating ABUTH ([5]; rate 0.0313 kg/ha): 9.0 | Preemergence herbicidal rating ABUTH ([5]; rate 0.0625 kg/ha): 9.0 | Preemergence herbicidal rating ABUTH ([5]; rate 0.1250 kg/ha): 9.0 | Preemergence herbicidal rating ABUTH ([5]; rate 0.2500 kg/ha): 9.0 | GALAP herbicidal rating ([6]; rate 0.0158 kg/ha): 6.0 | GALAP herbicidal rating ([6]; rate 0.0315 kg/ha): 7.0 | GALAP herbicidal rating ([6]; rate 0.0630 kg/ha): 9.0 | Preemergence herbicidal rating ZEAMX ([7]; rate 0.0156 kg/ha): 0.0 | Preemergence herbicidal rating ZEAMX ([7]; rate 0.0313 kg/ha): 0.0 | Preemergence herbicidal rating ZEAMX ([7]; rate 0.0625 kg/ha): 0.0 | Preemergence herbicidal rating ZEAMX ([7]; rate 0.1250 kg/ha): 1.0 | Preemergence herbicidal rating ZEAMX ([7]; rate 0.2500 kg/ha): 1.0 | ECHORC herbicidal effect rating ([8]; 0.0313 kg/ha): 9.0 | ECHORC herbicidal effect rating ([8]; 0.0625 kg/ha): 9.0 | ECHORC herbicidal effect rating ([8]; 0.1250 kg/ha): 9.0 | ECHORC herbicidal effect rating ([8]; 0.2500 kg/ha): 9.0 | TRZAWR herbicidal rating ([9]; rate 0.0158 kg/ha): 3.5 | TRZAWR herbicidal rating ([9]; rate 0.0315 kg/ha): 4.0 | TRZAWR herbicidal rating ([9]; rate 0.0630 kg/ha): 4.5 | Preemergence herbicidal rating IPOHE ([10]; rate 0.0156 kg/ha): 0.0 | Preemergence herbicidal rating IPOHE ([10]; rate 0.0313 kg/ha): 0.0 | Preemergence herbicidal rating IPOHE ([10]; rate 0.0625 kg/ha): 0.0 | Preemergence herbicidal rating IPOHE ([10]; rate 0.1250 kg/ha): 2.0 | Preemergence herbicidal rating IPOHE ([10]; rate 0.2500 kg/ha): 7.0 | CYPIR herbicidal effect rating ([11]; 0.0313 kg/ha): 6.0 | CYPIR herbicidal effect rating ([11]; 0.0625 kg/ha): 6.0 | CYPIR herbicidal effect rating ([11]; 0.1250 kg/ha): 7.0 | CYPIR herbicidal effect rating ([11]; 0.2500 kg/ha): 9.0 | SETVI herbicidal rating ([12]; rate 0.0158 kg/ha): 2.0 | SETVI herbicidal rating ([12]; rate 0.0315 kg/ha): 4.0 | SETVI herbicidal rating ([12]; rate 0.0630 kg/ha): 2.0 | IPOHE herbicidal rating ([13]; rate 0.0158 kg/ha): 9.0 | IPOHE herbicidal rating ([13]; rate 0.0315 kg/ha): 7.0 | IPOHE herbicidal rating ([13]; rate 0.0630 kg/ha): 9.0
